These results are taken from ChEMBL document CHEMBL1201862, “PubChem BioAssay data set” (2004).

Some test systems named below: HOP-62; M19-MEL; OVCAR-4; SK-MEL-2; SF-295; DLD-1; HCC 2998; NCI-H23; UACC-62; UACC-257; HCT-15; DMS-273; KM12; OVCAR-3; SR; CAKI-1; SK-MEL-5; SNB-75; MDA-MB-435; DU-145.
What all share (assay): growth of human tumour cells (NCI), 48 h

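Five concentrations, 48 hours, 96-well plates. At the GI50, growth is halved.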 Active and inactive are the calls of the source. Cut-off read from the data, not from the text of the source: active = GI50 up to about 1.1 µM and inactive = higher. Bounds are passed on as bounds.

For `Cc1c2n(c3ccccc13)CC1C2N(C)OC1(C)C` (stereo not given), the GI50 was 83.8 µM (inactive) with HOP-62; > 100 µM (inactive) in the test on M19-MEL; > 100 µM (inactive) in the test on OVCAR-4; > 100 µM (inactive) in the test with SK-MEL-2; > 100 µM (inactive) in the test on SF-295; > 100 µM (inactive) with DLD-1. Moreover, the GI50 with HCC 2998 is > 100 µM (inactive); with NCI-H23, > 100 µM (inactive); in the test on UACC-62 it was > 100 µM (inactive); in the test on UACC-257 it was > 100 µM (inactive); with HCT-15, > 100 µM; in the test with DMS-273, > 100 µM (inactive). For the same compound, the GI50 with KM12 is > 100 µM (inactive); in the test with OVCAR-3, > 100 µM (inactive); with SR it was > 100 µM (inactive); with CAKI-1, > 100 µM (inactive); with SK-MEL-5 it was > 100 µM (inactive); in the test with SNB-75, 81.5 µM (inactive).

As to `CCOC(=O)C1(c2ccccc2)CCCNCC1` (stereo not given), the GI50 was 32.4 µM (inactive) with HOP-62; > 100 µM (inactive) with M19-MEL; > 100 µM (inactive) in the test on OVCAR-4; > 100 µM (inactive) with SK-MEL-2; > 100 µM (inactive) in the test on SF-295; 58.5 µM (inactive) in the test on DLD-1. Further, the GI50 in the test on HCC 2998 was > 100 µM (inactive); in the test with NCI-H23, 35.3 µM (inactive); with UACC-62, > 100 µM (inactive); in the test with UACC-257, 68.1 µM (inactive); with HCT-15, 72.9 µM; in the test on DMS-273 it was 57.1 µM (inactive). For the same compound, the GI50 is > 100 µM (inactive) in the test with KM12; 74.6 µM (inactive) in the test on OVCAR-3; 33.1 µM (inactive) in the test with SR; > 100 µM (inactive) in the test on CAKI-1; 50.7 µM (inactive) with SK-MEL-5; > 100 µM (inactive) in the test on SNB-75.

In the case of `CCOC(=O)C(=O)Nc1c(C(C)C)cccc1C(C)C`, the GI50 in the test with HOP-62, in the test on M19-MEL, in the test with OVCAR-4, in the test with SK-MEL-2, in the test with SF-295 and in the test with DLD-1 was > 100 µM (inactive) throughout. The GI50 in the test on HCC 2998 is > 100 µM (inactive); in the test on NCI-H23, > 100 µM (inactive); with UACC-62, > 100 µM (inactive); with UACC-257, > 100 µM (inactive); in the test on HCT-15, > 100 µM; with DMS-273, > 100 µM (inactive). The GI50 in the test with KM12, in the test on OVCAR-3, in the test on SR, in the test on CAKI-1, in the test on SK-MEL-5 and in the test on SNB-75 was > 100 µM (inactive) each time.

With `N#CC(C(=O)C(=O)NCCCNC(=O)C(=O)C(C#N)c1ccccc1)c1ccccc1` (stereo not given), the GI50 with HOP-62, with M19-MEL, with OVCAR-4, with SK-MEL-2, in the test on SF-295 and in the test on DLD-1 was > 100 µM (inactive) each time. In addition, the GI50 with HCC 2998 is > 100 µM (inactive); in the test on NCI-H23, > 100 µM (inactive); in the test with UACC-62 it was > 100 µM (inactive); in the test with UACC-257 it was > 100 µM (inactive); in the test on HCT-15, > 100 µM; in the test with DMS-273 it was > 100 µM (inactive). Besides, the GI50 in the test on KM12 is > 100 µM (inactive); with OVCAR-3, > 100 µM (inactive); with SR, > 100 µM (inactive); in the test with CAKI-1 it was 0.0167 µM (active); in the test with SK-MEL-5, > 100 µM (inactive); in the test with SNB-75 it was 30.1 µM (inactive).

For `O=[N+]([O-])c1ccc(-c2csc(=[N+]3CCCCC3)s2)cc1`, the GI50 is 3.1 µM (inactive) with HOP-62; 10.7 µM (inactive) with M19-MEL; 18.5 µM (inactive) in the test on OVCAR-4; 24.9 µM (inactive) with SK-MEL-2; 2.71 µM (inactive) in the test with SF-295; 18.3 µM (inactive) in the test with DLD-1. Moreover, the GI50 with HCC 2998 is 21.1 µM (inactive); in the test with NCI-H23 it was 4.41 µM (inactive); in the test on UACC-62 it was 34.4 µM (inactive); in the test with UACC-257, 2.08 µM (inactive); with HCT-15 it was 29.2 µM; in the test with DMS-273 it was 28.8 µM (inactive). In addition, the GI50 in the test on KM12 is 4.13 µM (inactive); in the test on OVCAR-3, 13.9 µM (inactive); in the test with SR it was 11.1 µM (inactive); in the test with CAKI-1, 75.7 µM (inactive); with SK-MEL-5, 5.85 µM (inactive); in the test with SNB-75, 3.61 µM (inactive).

As to `O=C(NS(=O)(=O)c1ccccc1)C(Cc1ccccc1)C(Cc1ccccc1)C(=O)NS(=O)(=O)c1ccccc1` (stereo not given), the GI50 in the test on HOP-62, in the test with M19-MEL, in the test with OVCAR-4, with SK-MEL-2, in the test on SF-295 and with DLD-1 was > 100 µM (inactive) throughout. Besides, the GI50 with HCC 2998, in the test on NCI-H23, with UACC-62, in the test on UACC-257, with DMS-273 and in the test with KM12 was > 100 µM (inactive) each time. Moreover, the GI50 in the test with OVCAR-3, with SR, in the test with CAKI-1, in the test with SK-MEL-5 and in the test with SNB-75 was > 100 µM (inactive) each time.

On to `COc1c(Cl)cc(NC(=S)C#N)cc1Cl`, for which the GI50 with HOP-62 is 24.5 µM (inactive); in the test with M19-MEL, 19.5 µM (inactive); in the test with OVCAR-4 it was 29.2 µM (inactive); with SK-MEL-2, 23.4 µM (inactive); in the test with SF-295, 29.5 µM (inactive); with DLD-1 it was 31.7 µM (inactive). Further, the GI50 is 15.9 µM (inactive) with HCC 2998; 19.3 µM (inactive) in the test on NCI-H23; 15.1 µM (inactive) in the test on UACC-62; 19.9 µM (inactive) with UACC-257; 18.4 µM in the test on HCT-15; 30.3 µM (inactive) with DMS-273. The GI50 in the test with KM12 is 30.4 µM (inactive); in the test on MDA-MB-435 it was 25 µM (inactive); with OVCAR-3 it was 20.8 µM (inactive); in the test with DU-145, 35.6 µM (inactive); with SR, 23.8 µM (inactive); with CAKI-1 it was 22.7 µM (inactive). Also, the GI50 is 15.8 µM (inactive) with SK-MEL-5 and 22.5 µM (inactive) in the test on SNB-75.

With `COC1C2C=CC(C2)[C@H]1[N+](=O)[O-]` (stereo not given in full), the GI50 in the test on HOP-62, in the test with M19-MEL, with OVCAR-4, with SK-MEL-2, in the test with SF-295 and in the test on DLD-1 was > 100 µM (inactive) in each case. The GI50 with HCC 2998 is > 100 µM (inactive); in the test with NCI-H23, > 100 µM (inactive); in the test with UACC-62, > 100 µM (inactive); with UACC-257, > 100 µM (inactive); in the test with HCT-15 it was > 100 µM; in the test with DMS-273 it was > 100 µM (inactive). Further, the GI50 with KM12, with OVCAR-3, in the test on SR, in the test on CAKI-1, in the test on SK-MEL-5 and in the test on SNB-75 was > 100 µM (inactive) each time.

For `Cc1cc(C)nc(Sc2c([N+](=O)[O-])ncn2C)n1`, the GI50 in the test on HOP-62, with M19-MEL, in the test with OVCAR-4, with SK-MEL-2, with SF-295 and in the test on DLD-1 was > 100 µM (inactive) in each case. For the same compound, the GI50 with HCC 2998, in the test with NCI-H23, in the test with UACC-62, in the test on UACC-257, in the test on DMS-273 and with KM12 was > 100 µM (inactive) in each case. Further, the GI50 with OVCAR-3, in the test with SR, in the test with CAKI-1, with SK-MEL-5 and in the test with SNB-75 was > 100 µM (inactive) in each case.

With `CC(C)(C)CC(C)(C)c1ccc(OCCOCC[N+](C)(C)Cc2ccccc2)cc1` [BENZETHONIUM CHLORIDE], the GI50 in the test on HOP-62 was 8.93 µM (inactive); in the test with M19-MEL, 1.53 µM (inactive); in the test on OVCAR-4 it was 2.06 µM (inactive); in the test with SK-MEL-2 it was 2.06 µM (inactive); with SF-295, 11 µM (inactive); with DLD-1, 4.21 µM (inactive). Moreover, the GI50 was 1.5 µM (inactive) in the test with HCC 2998; 1.66 µM (inactive) with NCI-H23; 1.36 µM (inactive) in the test on UACC-62; 1.45 µM (inactive) in the test on UACC-257; 20.5 µM in the test with HCT-15; 1.44 µM (inactive) in the test with DMS-273. Also, the GI50 is 1.61 µM (inactive) in the test on KM12; 1.52 µM (inactive) in the test on OVCAR-3; 2.03 µM (inactive) in the test on SR; 10.1 µM (inactive) in the test on CAKI-1; 1.39 µM (inactive) with SK-MEL-5; 2.43 µM (inactive) in the test with SNB-75.
